Results published in patent US20240083900A1, “PYRAZOLO[1,5-A]PYRAZINE DERIVATIVES AS BTK INHIBITORS” (BIOGEN MA INC., priority 2020, published 2024).
Read-outs that look alike come from different tables or passages of the source.

Key:
BTK = BTK (Homo sapiens (Human), UniProt Q06187); assay: In Vitro BTK Kinase Assay: Btk-PolyGAT-LS Assay; type: biochemical; conditions: BTK enzyme 0.25 nM, ATP 10 μM, polyGAT 100 nM, 30 minutes incubation, TRF readout; read-out: IC50
Method in brief: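 Human BTK activity was measured with final 10 μM ATP and 100 nM polyGAT substrate in pH 7.5 Tris buffer with 10 mM MgCl2, DTT, Triton X-100 and casein.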

[1] = tested on: CD69 expression on CD19+ B cells in human whole blood stimulated with anti-human IgD; assay: In Vitro whole blood CD69 Assay; type: cell-based; conditions: human heparinized whole blood, anti-human IgD stimulation overnight, percentage of CD19+ B cells expressing CD69, flow cytometry, read-out: IC50

BTK, sequence (Q06187 whole entry): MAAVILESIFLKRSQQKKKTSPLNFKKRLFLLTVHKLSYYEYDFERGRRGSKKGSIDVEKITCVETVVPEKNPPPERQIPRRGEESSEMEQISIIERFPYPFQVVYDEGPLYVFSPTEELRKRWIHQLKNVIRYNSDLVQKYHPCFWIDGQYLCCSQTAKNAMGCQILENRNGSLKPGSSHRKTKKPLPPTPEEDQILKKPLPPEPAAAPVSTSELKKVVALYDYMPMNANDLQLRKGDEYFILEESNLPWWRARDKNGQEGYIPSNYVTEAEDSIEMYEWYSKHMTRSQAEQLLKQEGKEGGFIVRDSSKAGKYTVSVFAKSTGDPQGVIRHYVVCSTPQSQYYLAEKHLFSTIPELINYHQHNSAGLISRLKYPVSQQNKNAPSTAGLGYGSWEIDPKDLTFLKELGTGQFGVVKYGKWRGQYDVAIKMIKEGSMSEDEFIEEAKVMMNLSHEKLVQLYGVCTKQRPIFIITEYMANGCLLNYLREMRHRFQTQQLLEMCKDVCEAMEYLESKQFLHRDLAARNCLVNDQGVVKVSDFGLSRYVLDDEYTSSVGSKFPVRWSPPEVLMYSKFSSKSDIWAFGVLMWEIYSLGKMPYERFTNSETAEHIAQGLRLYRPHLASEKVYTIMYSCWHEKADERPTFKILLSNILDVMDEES

IC50 [1] | SMILES | IC50 (BTK) | IC50 ([1]; Homo sapiens, B-cell)
< 1 µM | C=CC(=O)N1C[C@H]2C[C@@H](C1)[C@H]2COc1nc(-c2cnn(C)c2)cn2nccc12 [Example 128, 1-((1R,5S,6s)-6-(((6-(1-methyl-1H-pyrazol-4-yl)pyrazolo[1,5-a]pyrazin-4-yl)oxy)methyl)-3-azabicyclo[3.1.1]heptan-3-yl)prop-2-en-1-one] | < 0.001 µM | –
– | C=CC(=O)N1CCC(C)(COc2nc(-c3cnn(C)c3)cn3nccc23)CC1 [Example 189, 1-(4-methyl-4-(((6-(1-methyl-1H-pyrazol-4-yl)pyrazolo[1,5-a]pyrazin-4-yl)oxy)methyl)piperidin-1-yl)prop-2-en-1-one] | 0.001 to 0.01 µM | 1 to 10 µM
– | C/C=C\S(=O)(=O)N1CC(Oc2nc(-c3cnn(C)c3)cn3nccc23)C1 [Example 10, (Z)-6-(1-methyl-1H-pyrazol-4-yl)-4-((1-(prop-1-en-1-ylsulfonyl)azetidin-3-yl)oxy)pyrazolo[1,5-a]pyrazine] | 0.01 to 1 µM | > 10 µM
– | C=CC(=O)N(C)[C@@H]1C[C@@H](Oc2nc(-c3cnn(C)c3)cn3nccc23)C1(C)C [Example 220, N-((1R,3R)-2,2-dimethyl-3-((6-(1-methyl-1H-pyrazol-4-yl)pyrazolo[1,5-a]pyrazin-4-yl)oxy)cyclobutyl)-N-methylacrylamide] | 0.001 to 0.01 µM | 1 to 10 µM
– | CC#CC(=O)N[C@H]1CC[C@@H](Oc2cc(-c3cnn(C)c3)cn3nccc23)C1 [Example 164, N-[(1S,3R)-3-[6-(1-methylpyrazol-4-yl)pyrazolo[1,5-a]pyridin-4-yl]oxycyclopentyl]but-2-ynamide] | 0.001 to 0.01 µM | 1 to 10 µM
– | C=CC(=O)N1CCC[C@@H](Oc2nc(-c3cnn(C)c3)cn3nc(N)cc23)CC1 [Example 67, 1-[(4R)-4-[2-amino-6-(1-methylpyrazol-4-yl)pyrazolo[1,5-a]pyrazin-4-yl]oxyazepan-1-yl]prop-2-en-1-one] | < 0.001 µM | < 1 µM
– | C=CC(=O)N(C)CCOc1nc(-c2cnn(C)c2)cn2nccc12 [Example 183, N-methyl-N-(3-((6-(1-methyl-1H-pyrazol-4-yl)pyrazolo[1,5-a]pyrazin-4-yl)oxy)ethyl)acrylamide] | 0.001 to 0.01 µM | 1 to 10 µM
– | C=CC(=O)N[C@H]1C[C@@](C)(Oc2nc(-c3cnn(C)c3)cn3nccc23)C1 [Example 228, N-((1s,3s)-3-methyl-3-((6-(1-methyl-1H-pyrazol-4-yl)pyrazolo[1,5-a]pyrazin-4-yl)oxy)cyclobutyl)acrylamide] | < 0.001 µM | < 1 µM
– | C=CC(=O)N(CC(F)F)[C@H]1C[C@@](C)(Oc2nc(-c3cnn(C)c3)cn3nccc23)C1 [Example 226, N-(2,2-difluoroethyl)-N-((1s,3s)-3-methyl-3-((6-(1-methyl-1H-pyrazol-4-yl)pyrazolo[1,5-a]pyrazin-4-yl)oxy)cyclobutyl)acrylamide] | < 0.001 µM | < 1 µM
– | C=CC(=O)N(C)c1ccc(F)c(Oc2nc(-c3cnn(C)c3)cn3nccc23)c1 [Example 130, N-(4-fluoro-3-((6-(1-methyl-1H-pyrazol-4-yl)pyrazolo[1,5-a]pyrazin-4-yl)oxy)phenyl)-N-methylacrylamide] | 0.001 to 0.01 µM | 1 to 10 µM
– | C=CC(=O)NCC1CCCCN1c1nc(-c2cnn(C)c2)cn2nccc12 (centres unmarked) [Example 27, N-[[1-[6-(1-methylpyrazol-4-yl)pyrazolo[1,5-a]pyrazin-4-yl]-2-piperidyl]methyl]prop-2-enamide] | 0.01 to 1 µM | 1 to 10 µM
– | CC#CC(=O)N(C)C12COCC(Oc3nc(-c4cnn(C)c4)cn4nccc34)(C1)C2 [Example 100, N-methyl-N-(5-((6-(1-methyl-1H-pyrazol-4-yl)pyrazolo[1,5-a]pyrazin-4-yl)oxy)-3-oxabicyclo[3.1.1]heptan-1-yl)but-2-ynamide] | < 0.001 µM | < 1 µM
– | C=CC(=O)N(C)[C@@H]1C[C@@](C)(Oc2nc(-c3cnn(C)c3)cn3nccc23)[C@@H]1C (single isomer, unassigned) [Example 107] | 0.001 to 0.01 µM | < 1 µM
